Experimental findings from patent US8372854B2, “Pyrrolo[2,3-D]pyrimidine compounds” (Pfizer Inc., priority 2009, dated 2013) are described below.

Each structure is given as a SMILES string.

Type in all cases: biochemical
One assay has as its target T1, JAK3 (Homo sapiens, UniProt P52333).
T1 construct: purchased Invitrogen Corporation, Madison, Wis; PV3855
T1 sequence (P52333 1-1124): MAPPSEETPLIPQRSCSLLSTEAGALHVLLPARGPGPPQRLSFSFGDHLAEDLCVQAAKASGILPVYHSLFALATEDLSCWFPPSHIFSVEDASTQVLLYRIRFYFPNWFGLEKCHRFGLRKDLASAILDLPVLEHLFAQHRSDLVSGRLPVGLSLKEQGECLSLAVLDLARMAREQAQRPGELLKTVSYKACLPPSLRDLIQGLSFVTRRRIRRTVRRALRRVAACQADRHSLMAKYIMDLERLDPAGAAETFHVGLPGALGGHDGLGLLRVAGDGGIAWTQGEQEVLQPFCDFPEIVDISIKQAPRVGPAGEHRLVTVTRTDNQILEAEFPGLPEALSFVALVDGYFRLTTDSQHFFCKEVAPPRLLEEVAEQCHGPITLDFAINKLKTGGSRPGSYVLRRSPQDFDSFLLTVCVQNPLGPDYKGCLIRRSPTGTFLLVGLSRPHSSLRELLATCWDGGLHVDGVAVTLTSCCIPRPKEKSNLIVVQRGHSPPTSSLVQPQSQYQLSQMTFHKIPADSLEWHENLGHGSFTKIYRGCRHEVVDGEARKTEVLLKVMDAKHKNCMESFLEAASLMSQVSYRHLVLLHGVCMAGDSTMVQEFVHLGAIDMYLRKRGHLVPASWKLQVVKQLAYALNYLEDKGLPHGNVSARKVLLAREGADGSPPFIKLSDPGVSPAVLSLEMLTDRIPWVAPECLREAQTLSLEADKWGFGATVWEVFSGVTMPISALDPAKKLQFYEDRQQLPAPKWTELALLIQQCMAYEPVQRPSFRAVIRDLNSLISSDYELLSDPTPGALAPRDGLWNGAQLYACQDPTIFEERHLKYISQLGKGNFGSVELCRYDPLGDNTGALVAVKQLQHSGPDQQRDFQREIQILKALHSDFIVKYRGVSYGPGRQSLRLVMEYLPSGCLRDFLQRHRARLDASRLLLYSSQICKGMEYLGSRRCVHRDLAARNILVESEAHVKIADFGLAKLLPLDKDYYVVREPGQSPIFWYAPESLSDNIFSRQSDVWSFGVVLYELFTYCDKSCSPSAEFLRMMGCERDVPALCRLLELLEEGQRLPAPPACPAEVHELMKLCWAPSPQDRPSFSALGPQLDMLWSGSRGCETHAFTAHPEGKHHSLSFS
Put plainly: JAK enzymatic assay (peptide mobility shift), JAK3. The note with it: recombinant JAK3 1 nM, ATP 4 μM, 1 μM JAKtide peptide, 90 minutes.

For a further assay, the target named is T2, JAK2 (Homo sapiens, UniProt O60674).
T2 construct: purchased Invitrogen Corporation, Madison, Wis; PV4210
Put plainly: JAK enzymatic assay (peptide mobility shift), JAK2. The note with it: recombinant JAK2 2 nM, ATP 4 μM, 1 μM JAKtide peptide, 150 minutes. In outline:
(§1)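 Caliper mobility-shift assay of peptide phosphorylation (1 μM peptide) in pH 7.4 HEPES with MgCl2, BSA, Tween-20 and 2% DMSO. JAK1 used 20 nM enzyme, 40 μM ATP, IRS-1 peptide, 240 min; JAK2 used 2 nM, 4 μM ATP, JAKtide, 150 min; JAK3 used 1 nM, 4 μM ATP, JAKtide, 90 min. IC50s came from 11-point 4-parameter fits.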

The target in the next assay is T3, JAK1 (Homo sapiens, UniProt P23458).
T3 construct: purchased Invitrogen Corporation, Madison, Wis; PV4775
Put plainly: JAK enzymatic assay (peptide mobility shift), JAK1. The note with it: recombinant JAK1 20 nM, ATP 40 μM, 1 μM IRS-1 peptide, 240 minutes. A digest of the protocol: as §1

T3 sequence (P23458 whole entry): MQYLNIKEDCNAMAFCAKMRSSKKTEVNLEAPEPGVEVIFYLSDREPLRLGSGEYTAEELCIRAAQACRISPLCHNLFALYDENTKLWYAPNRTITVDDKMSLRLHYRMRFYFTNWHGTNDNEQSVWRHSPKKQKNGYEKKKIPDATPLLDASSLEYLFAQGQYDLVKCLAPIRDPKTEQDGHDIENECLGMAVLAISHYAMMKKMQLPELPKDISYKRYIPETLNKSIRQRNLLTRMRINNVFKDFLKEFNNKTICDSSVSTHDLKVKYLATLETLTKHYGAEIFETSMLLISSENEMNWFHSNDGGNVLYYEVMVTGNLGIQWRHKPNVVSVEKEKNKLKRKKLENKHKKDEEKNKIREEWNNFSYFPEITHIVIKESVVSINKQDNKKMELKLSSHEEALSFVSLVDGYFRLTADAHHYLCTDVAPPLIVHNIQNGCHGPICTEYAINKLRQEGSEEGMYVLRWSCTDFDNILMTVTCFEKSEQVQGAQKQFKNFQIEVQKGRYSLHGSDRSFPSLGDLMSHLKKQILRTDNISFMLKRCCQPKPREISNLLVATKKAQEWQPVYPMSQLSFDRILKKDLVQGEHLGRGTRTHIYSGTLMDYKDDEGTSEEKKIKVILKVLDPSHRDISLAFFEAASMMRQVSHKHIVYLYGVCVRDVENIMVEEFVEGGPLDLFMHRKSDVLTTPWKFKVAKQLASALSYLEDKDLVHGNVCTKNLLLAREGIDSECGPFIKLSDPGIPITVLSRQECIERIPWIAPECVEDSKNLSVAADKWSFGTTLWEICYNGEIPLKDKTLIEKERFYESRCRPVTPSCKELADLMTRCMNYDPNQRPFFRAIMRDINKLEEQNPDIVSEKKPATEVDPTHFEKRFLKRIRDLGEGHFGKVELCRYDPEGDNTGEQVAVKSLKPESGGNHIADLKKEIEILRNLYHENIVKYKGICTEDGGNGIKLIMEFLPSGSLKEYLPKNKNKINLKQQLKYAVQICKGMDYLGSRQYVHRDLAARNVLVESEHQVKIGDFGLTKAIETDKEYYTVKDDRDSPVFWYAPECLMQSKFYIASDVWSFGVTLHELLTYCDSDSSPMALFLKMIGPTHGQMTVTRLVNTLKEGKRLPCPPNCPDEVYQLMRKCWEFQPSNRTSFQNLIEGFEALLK
T2 sequence (O60674 whole entry): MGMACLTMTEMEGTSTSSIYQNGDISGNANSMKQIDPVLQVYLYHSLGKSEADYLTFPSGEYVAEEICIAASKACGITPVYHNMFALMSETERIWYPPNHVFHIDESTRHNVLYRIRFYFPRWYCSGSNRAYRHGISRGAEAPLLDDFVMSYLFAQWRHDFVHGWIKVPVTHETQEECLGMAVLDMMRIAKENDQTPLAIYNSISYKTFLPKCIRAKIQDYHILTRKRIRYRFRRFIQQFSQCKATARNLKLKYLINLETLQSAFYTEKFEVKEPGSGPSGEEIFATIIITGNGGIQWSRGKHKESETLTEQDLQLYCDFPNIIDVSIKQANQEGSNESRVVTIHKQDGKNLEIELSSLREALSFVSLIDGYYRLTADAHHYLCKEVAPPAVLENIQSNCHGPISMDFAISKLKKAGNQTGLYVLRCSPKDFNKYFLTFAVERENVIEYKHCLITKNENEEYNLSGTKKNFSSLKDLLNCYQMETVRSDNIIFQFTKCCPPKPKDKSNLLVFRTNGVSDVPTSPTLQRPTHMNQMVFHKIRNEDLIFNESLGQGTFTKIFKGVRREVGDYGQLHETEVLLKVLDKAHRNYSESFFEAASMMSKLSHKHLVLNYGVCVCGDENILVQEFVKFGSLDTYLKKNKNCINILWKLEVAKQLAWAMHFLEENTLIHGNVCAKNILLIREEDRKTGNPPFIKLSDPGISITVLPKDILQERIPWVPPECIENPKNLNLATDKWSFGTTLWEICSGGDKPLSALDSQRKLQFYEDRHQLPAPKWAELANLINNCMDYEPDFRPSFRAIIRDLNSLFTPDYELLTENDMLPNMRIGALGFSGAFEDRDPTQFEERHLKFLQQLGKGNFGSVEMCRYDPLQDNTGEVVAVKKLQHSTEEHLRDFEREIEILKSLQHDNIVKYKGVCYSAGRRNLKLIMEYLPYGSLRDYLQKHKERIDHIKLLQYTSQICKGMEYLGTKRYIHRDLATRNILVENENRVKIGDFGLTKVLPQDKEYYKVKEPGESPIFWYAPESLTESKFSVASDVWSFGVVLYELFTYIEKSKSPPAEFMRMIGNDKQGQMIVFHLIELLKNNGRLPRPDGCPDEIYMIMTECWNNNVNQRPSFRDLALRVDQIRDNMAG

Regarding `CN(c1ncnc2[nH]ccc12)[C@H]1CC[C@H](CS(=O)(=O)NC2(Cc3ccccc3)CCC2)CC1` [Example 44, N-(1-benzylcyclobutyl)-1-{trans-4-[methyl(7H-pyrrolo-[2,3-d]pyrimidin-4-yl)amino]-cyclohexyl}methane-sulfonamide], the concentration for half-maximal inhibition (IC50) on JAK3 was determined as 641 nM; on JAK2 it was 112 nM; on JAK1, 15.1 nM.

As to `Cc1cnc(CNS(=O)(=O)C[C@H]2CC[C@H](N(C)c3ncnc4[nH]ccc34)CC2)cn1` [Example 45, N-[(5-methylpyrazin-2-yl)methyl]-1-{trans-4-[methyl(7H-pyrrolo[2,3-d]-pyrimidin-4-yl)amino]cyclohexyl}-methanesulfonamide], the IC50 was 490 nM at JAK3, 49.7 nM on JAK2 and 15.3 nM on JAK1.

For the molecule `CN(c1ncnc2[nH]ccc12)[C@H]1CC[C@H](CS(=O)(=O)N[C@@H]2CCC[C@@H]2c2ccc(F)cc2)CC1` [Example 46, N-[(1R,2R)-2-(4-fluoro-phenyl)cyclopentyl]-1-{trans-4-[methyl(7H-pyrrolo[2,3-d]pyrimidin-4-yl)amino]cyclohexyl}-methanesulfonamide], the IC50 stood at 355 nM at JAK3, 18.4 nM at JAK2 and 15.6 nM on JAK1.

For `CN(c1ncnc2[nH]ccc12)[C@H]1CC[C@H](CS(=O)(=O)NC[C@H]2CCCO2)CC1` [Example 47, 1-{trans-4-[methyl(7H-pyrrolo[2,3-d]pyrimidin-4-yl)amino]cyclohexyl}-N-[(2R)-tetrahydrofuran-2-ylmethyl]-methanesulfonamide], the IC50 on JAK3 stood at 1060 nM; at JAK2 it was 174 nM; on JAK1, 16.1 nM.

Turning to `CN(c1ncnc2[nH]ccc12)[C@H]1CC[C@H](CS(=O)(=O)NCCC(F)=C(F)F)CC1` [Example 48, 1-{trans-4-[methyl(7H-pyrrolo[2,3-d]pyrimidin-4-yl)amino]cyclohexyl}-N-(3,4,4-trifluorobut-3-en-1-yl)methanesulfonamide], the figures for the IC50 on JAK3, on JAK2 and at JAK1 were 267 nM, 66 nM and 19.6 nM, respectively.

For the molecule `C[C@H](O)CNS(=O)(=O)C[C@H]1CC[C@H](N(C)c2ncnc3[nH]ccc23)CC1` [Example 49, N-[(2S)-2-hydroxypropyl]-1-{trans-4-[methyl(7H-pyrrolo[2,3-d]pyrimidin-4-yl)amino]cyclohexyl}-methanesulfonamide], the IC50 at JAK3 amounted to 526 nM; on JAK2 it was 64.2 nM; on JAK1 it was 21.4 nM.

Take `Cc1cccc(CCNS(=O)(=O)C[C@H]2CC[C@H](N(C)c3ncnc4[nH]ccc34)CC2)n1` [Example 50, N-[2-(6-methylpyridin-2-yl)ethyl]-1-{trans-4-[methyl(7H-pyrrolo[2,3-d]-pyrimidin-4-yl)amino]-cyclohexyl}-methanesulfonamide]: the results for the IC50 at JAK3, at JAK2 and on JAK1 were 633 nM, 80.6 nM and 21.6 nM, respectively.

In the case of `Cc1cc(C)nc(CNS(=O)(=O)C[C@H]2CC[C@H](N(C)c3ncnc4[nH]ccc34)CC2)n1` [Example 51, N-[(4,6-dimethylpyrimidin-2-yl)methyl]-1-{trans-4-[methyl(7H-pyrrolo[2,3-d]-pyrimidin-4-yl)amino]cyclohexyl}-methanesulfonamide], the figures for the IC50 on JAK3, on JAK2 and at JAK1 were 237 nM, 20.2 nM and 23.3 nM, respectively.

Turning to `Cc1nn(C)cc1CNS(=O)(=O)C[C@H]1CC[C@H](N(C)c2ncnc3[nH]ccc23)CC1` [Example 52, N-[(1,3-dimethyl-1H-pyrazol-4-yl)methyl]-1-{trans-4-[methyl(7H-pyrrolo[2,3-d]pyrimidin-4-yl)amino]cyclohexyl}-methanesulfonamide], the results for the IC50 at JAK3, on JAK2 and at JAK1 were 762 nM, 107 nM and 24 nM, respectively.

Regarding `CN(c1ncnc2[nH]ccc12)[C@H]1CC[C@@H](CS(=O)(=O)NCCc2ccccc2)CC1` [Example 53, 1-{cis-4-[methyl(7H-pyrrolo[2,3-d]pyrimidin-4-yl)amino]cyclohexyl}-N-(2-phenylethyl)-methanesulfonamide], the IC50 is 119 nM at JAK3, 34.7 nM on JAK2 and 11.5 nM at JAK1.

Turning to `CN(c1ncnc2[nH]ccc12)[C@H]1CC[C@@H](CS(=O)(=O)NCc2ccccc2)CC1` [Example 54, N-benzyl-1-{cis-4-[methyl(7H-pyrrolo[2,3-d]pyrimidin-4-yl)amino]cyclohexyl}-methanesulfonamide], the half-maximal inhibitory concentration (IC50) worked out at 162 nM on JAK3, 54.2 nM on JAK2 and 19.3 nM at JAK1.

As to `CN(c1ncnc2[nH]ccc12)[C@H]1CC[C@@H](CS(=O)(=O)NCC2CC2)CC1` [Example 55, N-(cyclopropylmethyl)-1-{cis-4-[methyl(7H-pyrrolo[2,3-d]pyrimidin-4-yl)amino]cyclohexyl}-methanesulfonamide], the half-inhibitory concentration (IC50) was found to be 201 nM at JAK3, 34.1 nM on JAK2 and 11.4 nM on JAK1.

In the case of `COc1ccc(CNS(=O)(=O)C[C@H]2CC[C@@H](N(C)c3ncnc4[nH]ccc34)CC2)cc1` [Example 56, N-(4-methoxybenzyl)-1-{cis-4-[methyl(7H-pyrrolo[2,3-d]pyrimidin-4-yl)amino]cyclohexyl}-methanesulfonamide], the IC50 worked out at 114 nM at JAK3, 36.6 nM on JAK2 and 10.7 nM on JAK1.

Regarding `CN(C)S(=O)(=O)C[C@H]1CC[C@H](N(C)c2ncnc3[nH]ccc23)CC1` [Example 57, N,N-dimethyl((1r,4r)-4-(methyl(7H-pyrrolo[2,3-d]pyrimidin-4-yl)amino)-cyclohexyl)-methanesulfonamide], the IC50 is 174 nM at JAK3, 27.5 nM on JAK2 and 7.33 nM at JAK1.

The IC50 is the concentration needed to halve the response being measured.
